In ChEMBL document CHEMBL1201861, “Genomics of Drug Sensitity in Cancer screening data, Wellcome Trust Sanger Institute”:

How the values were obtained:
Test in all cases: cells
NCI-N87 = type: functional, cell-based, Homo sapiens; conditions: Homo sapiens, NCI-N87
Description: SANGER: Inhibition of human NCI-N87 cell growth in a cell viability assay.

LB2518-MEL = type: functional, cell-based, Homo sapiens; conditions: Homo sapiens, LB2518-MEL
Description: SANGER: Inhibition of human LB2518-MEL cell growth in a cell viability assay.

EGI-1 = type: functional, cell-based, Homo sapiens; conditions: Homo sapiens, EGI-1
Description: SANGER: Inhibition of human EGI-1 cell growth in a cell viability assay.

KURAMOCHI = type: functional, cell-based; conditions: Homo sapiens
Description: SANGER: Inhibition of human KURAMOCHI cell growth in a cell viability assay.

NCI-H810 = type: functional, cell-based, Homo sapiens; conditions: Homo sapiens, NCI-H810
Description: SANGER: Inhibition of human NCI-H810 cell growth in a cell viability assay.

SK-NEP-1 = type: functional, cell-based; conditions: Homo sapiens
Description: SANGER: Inhibition of human SK-NEP-1 cell growth in a cell viability assay.

Capan-2 = type: functional, cell-based, Homo sapiens; conditions: Homo sapiens, Capan-2
Description: SANGER: Inhibition of human Capan-2 cell growth in a cell viability assay.

HT = type: functional, cell-based; conditions: Homo sapiens
Description: SANGER: Inhibition of human HT cell growth in a cell viability assay.

KNS-42 = type: functional, cell-based, Homo sapiens; conditions: Homo sapiens, KNS-42
Description: SANGER: Inhibition of human KNS-42 cell growth in a cell viability assay.

SNU1 = type: functional, cell-based; conditions: Homo sapiens
Description: SANGER: Inhibition of human NCI-SNU-1 cell growth in a cell viability assay.

KARPAS-299 = type: functional, cell-based; conditions: Homo sapiens
Description: SANGER: Inhibition of human KARPAS-299 cell growth in a cell viability assay.

EOL1 = type: functional, cell-based; conditions: Homo sapiens
Description: SANGER: Inhibition of human EoL-1-cell cell growth in a cell viability assay.

CAL-120 = type: functional, cell-based, Homo sapiens; conditions: Homo sapiens, CAL-120
Description: SANGER: Inhibition of human CAL-120 cell growth in a cell viability assay.

NCI-H209 = type: functional, cell-based; conditions: Homo sapiens
Description: SANGER: Inhibition of human NCI-H209 cell growth in a cell viability assay.

UACC-893 = type: functional, cell-based, Homo sapiens; conditions: Homo sapiens, UACC-893
Description: SANGER: Inhibition of human UACC-893 cell growth in a cell viability assay.

ES5 = type: functional, cell-based, Homo sapiens; conditions: Homo sapiens, ES5
Description: SANGER: Inhibition of human ES5 cell growth in a cell viability assay.

HAL-01 = type: functional, cell-based; conditions: Homo sapiens
Description: SANGER: Inhibition of human HAL-01 cell growth in a cell viability assay.

COLO-824 = type: functional, cell-based, Homo sapiens; conditions: Homo sapiens, COLO-824
Description: SANGER: Inhibition of human COLO-824 cell growth in a cell viability assay.

EW-11 = type: functional, cell-based, Homo sapiens; conditions: Homo sapiens, EW-11
Description: SANGER: Inhibition of human EW-11 cell growth in a cell viability assay.

TE-10 = type: functional, cell-based, Homo sapiens; conditions: Homo sapiens, TE-10
Description: SANGER: Inhibition of human TE-10 cell growth in a cell viability assay.

CAL-51 = type: functional, cell-based, Homo sapiens; conditions: Homo sapiens, CAL-51
Description: SANGER: Inhibition of human CAL-51 cell growth in a cell viability assay.

ES1 = type: functional, cell-based, Homo sapiens; conditions: Homo sapiens, ES1
Description: SANGER: Inhibition of human ES1 cell growth in a cell viability assay.

HMV-2 cell line = type: functional, cell-based, Homo sapiens; conditions: Homo sapiens, HMV-2
Description: SANGER: Inhibition of human HMV-II cell growth in a cell viability assay.

SK-HEP1 = type: functional, cell-based, Homo sapiens, SK-HEP-1; conditions: Homo sapiens, SK-HEP1
Description: SANGER: Inhibition of human SK-HEP-1 cell growth in a cell viability assay.

HOP-92 = type: functional, cell-based, Homo sapiens; conditions: Homo sapiens, HOP-92
Description: SANGER: Inhibition of human HOP-92 cell growth in a cell viability assay.

Ca9-22 = type: functional, cell-based, Homo sapiens; conditions: Homo sapiens, Ca9-22
Description: SANGER: Inhibition of human Ca9-22 cell growth in a cell viability assay.

MN-60 = type: functional, cell-based; conditions: Homo sapiens
Description: SANGER: Inhibition of human MN-60 cell growth in a cell viability assay.

CAL-85-1 = type: functional, cell-based; conditions: Homo sapiens
Description: SANGER: Inhibition of human CAL-85-1 cell growth in a cell viability assay.

NCI-H1651 = type: functional, cell-based, Homo sapiens; conditions: Homo sapiens, NCI-H1651
Description: SANGER: Inhibition of human NCI-H1651 cell growth in a cell viability assay.

NCI-H661 = type: functional, cell-based, Homo sapiens; conditions: Homo sapiens, NCI-H661
Description: SANGER: Inhibition of human NCI-H661 cell growth in a cell viability assay.

HT-3 = type: functional, cell-based, Homo sapiens; conditions: Homo sapiens, HT-3
Description: SANGER: Inhibition of human HT-3 cell growth in a cell viability assay.

NCI-H2126 = type: functional, cell-based, Homo sapiens; conditions: Homo sapiens, NCI-H2126
Description: SANGER: Inhibition of human NCI-H2126 cell growth in a cell viability assay.

COLO-741 = type: functional, cell-based, Homo sapiens; conditions: Homo sapiens, COLO-741
Description: SANGER: Inhibition of human COLO-741 cell growth in a cell viability assay.

LU-134-A = type: functional, cell-based; conditions: Homo sapiens
Description: SANGER: Inhibition of human LU-134-A cell growth in a cell viability assay.

NCI-H520 = type: functional, cell-based, Homo sapiens; conditions: Homo sapiens, NCI-H520
Description: SANGER: Inhibition of human NCI-H520 cell growth in a cell viability assay.

D-263MG = type: functional, cell-based, Homo sapiens; conditions: Homo sapiens, D-263MG
Description: SANGER: Inhibition of human D-263MG cell growth in a cell viability assay.

KYSE-410 = type: functional, cell-based, Homo sapiens; conditions: Homo sapiens, KYSE-410
Description: SANGER: Inhibition of human KYSE-410 cell growth in a cell viability assay.

SK-N-FI = type: functional, cell-based, Homo sapiens; conditions: Homo sapiens, SK-N-FI
Description: SANGER: Inhibition of human SK-N-FI cell growth in a cell viability assay.

GMS-10 = type: functional, cell-based, Homo sapiens; conditions: Homo sapiens, GMS-10
Description: SANGER: Inhibition of human GMS-10 cell growth in a cell viability assay.

GI-ME-N = type: functional, cell-based, Homo sapiens; conditions: Homo sapiens, GI-ME-N
Description: SANGER: Inhibition of human GI-ME-N cell growth in a cell viability assay.

KINGS-1 = type: functional, cell-based, Homo sapiens; conditions: Homo sapiens, KINGS-1
Description: SANGER: Inhibition of human KINGS-1 cell growth in a cell viability assay.

KP-N-YS = type: functional, cell-based; conditions: Homo sapiens
Description: SANGER: Inhibition of human KP-N-YS cell growth in a cell viability assay.

GI-1 = type: functional, cell-based, Homo sapiens; conditions: Homo sapiens, GI-1
Description: SANGER: Inhibition of human GI-1 cell growth in a cell viability assay.

SW626 = type: functional, cell-based, Homo sapiens; conditions: Homo sapiens, SW626
Description: SANGER: Inhibition of human SW626 cell growth in a cell viability assay.

NCI-H1770 = type: functional, cell-based; conditions: Homo sapiens
Description: SANGER: Inhibition of human NCI-H1770 cell growth in a cell viability assay.

HCC1937 = type: functional, cell-based, Homo sapiens; conditions: Homo sapiens, HCC1937
Description: SANGER: Inhibition of human HCC1937 cell growth in a cell viability assay.

LU-139 = type: functional, cell-based; conditions: Homo sapiens
Description: SANGER: Inhibition of human LU-139 cell growth in a cell viability assay.

NCI-H446 = type: functional, cell-based; conditions: Homo sapiens
Description: SANGER: Inhibition of human NCI-H446 cell growth in a cell viability assay.

HC-1 = type: functional, cell-based; conditions: Homo sapiens
Description: SANGER: Inhibition of human HC-1 cell growth in a cell viability assay.

OCUB-M = type: functional, cell-based, Homo sapiens; conditions: Homo sapiens, OCUB-M
Description: SANGER: Inhibition of human OCUB-M cell growth in a cell viability assay.

## O=C(c1cc(Cc2n[nH]c(=O)c3ccccc23)ccc1F)N1CCN(C(=O)C2CC2)CC1 [OLAPARIB]
NCI-N87
  IC50: > 5000 nM
LB2518-MEL
  IC50: > 5000 nM
EGI-1
  IC50: > 5000 nM
KURAMOCHI
  IC50: > 5000 nM
NCI-H810
  IC50: > 5000 nM
SK-NEP-1
  IC50: > 5000 nM
Capan-2
  IC50: > 5000 nM
HT
  IC50: > 5000 nM
KNS-42
  IC50: > 5000 nM
SNU1
  IC50: > 5000 nM
KARPAS-299
  IC50: > 5000 nM
EOL1
  IC50: 564 nM
CAL-120
  IC50: > 5000 nM
NCI-H209
  IC50: 916 nM
UACC-893
  IC50: > 5000 nM
ES5
  IC50: 2880 nM
HAL-01
  IC50: > 5000 nM
COLO-824
  IC50: > 5000 nM
EW-11
  IC50: > 5000 nM
TE-10
  IC50: > 5000 nM
CAL-51
  IC50: > 5000 nM
ES1
  IC50: 1110 nM
HMV-2 cell line
  IC50: > 5000 nM
SK-HEP1
  IC50: > 5000 nM
HOP-92
  IC50: > 5000 nM
Ca9-22
  IC50: > 5000 nM
MN-60
  IC50: > 5000 nM
CAL-85-1
  IC50: > 5000 nM
NCI-H1651
  IC50: > 5000 nM
NCI-H661
  IC50: > 5000 nM
HT-3
  IC50: > 5000 nM
NCI-H2126
  IC50: > 5000 nM
COLO-741
  IC50: > 5000 nM
LU-134-A
  IC50: > 5000 nM
NCI-H520
  IC50: > 5000 nM
D-263MG
  IC50: > 5000 nM
KYSE-410
  IC50: > 5000 nM
SK-N-FI
  IC50: > 5000 nM
GMS-10
  IC50: > 5000 nM
GI-ME-N
  IC50: > 5000 nM
KINGS-1
  IC50: > 5000 nM
KP-N-YS
  IC50: > 5000 nM
GI-1
  IC50: > 5000 nM
SW626
  IC50: > 5000 nM
NCI-H1770
  IC50: > 5000 nM
HCC1937
  IC50: > 5000 nM
LU-139
  IC50: 4760 nM
NCI-H446
  IC50: > 5000 nM
HC-1
  IC50: > 5000 nM
OCUB-M
  IC50: > 5000 nM

## CC(=O)O[C@@]12CO[C@@H]1C[C@H](O)[C@@]1(C)C(=O)[C@H](O)C3=C(C)[C@@H](OC(=O)[C@H](O)[C@@H](NC(=O)OC(C)(C)C)c4ccccc4)C[C@@](O)([C@@H](OC(=O)c4ccccc4)[C@H]21)C3(C)C [DOCETAXEL]
NCI-N87
  IC50: > 10 nM
LB2518-MEL
  IC50: > 10 nM
EGI-1
  IC50: 3.62 nM
KURAMOCHI
  IC50: > 10 nM
NCI-H810
  IC50: 6.22 nM
SK-NEP-1
  IC50: 1.76 nM
Capan-2
  IC50: > 10 nM
HT
  IC50: > 10 nM
KNS-42
  IC50: 4.12 nM
SNU1
  IC50: 1.97 nM
KARPAS-299
  IC50: > 10 nM
EOL1
  IC50: 1.73 nM
CAL-120
  IC50: 4.35 nM
NCI-H209
  IC50: 2.86 nM
UACC-893
  IC50: > 10 nM
ES5
  IC50: 0.91 nM
HAL-01
  IC50: > 10 nM
COLO-824
  IC50: 5.9 nM
EW-11
  IC50: 1.69 nM
TE-10
  IC50: 2.54 nM
CAL-51
  IC50: 2.71 nM
ES1
  IC50: 0.77 nM
HMV-2 cell line
  IC50: > 10 nM
SK-HEP1
  IC50: 2.34 nM
HOP-92
  IC50: 7.3 nM
Ca9-22
  IC50: 0.423 nM
MN-60
  IC50: > 10 nM
CAL-85-1
  IC50: > 10 nM
NCI-H1651
  IC50: 5.4 nM
NCI-H661
  IC50: > 10 nM
HT-3
  IC50: 2.82 nM
NCI-H2126
  IC50: 7.73 nM
COLO-741
  IC50: 8.2 nM
LU-134-A
  IC50: > 10 nM
NCI-H520
  IC50: 3.72 nM
D-263MG
  IC50: 0.947 nM
KYSE-410
  IC50: 1.24 nM
SK-N-FI
  IC50: > 10 nM
GMS-10
  IC50: 0.941 nM
GI-ME-N
  IC50: 3.58 nM
KINGS-1
  IC50: 1.17 nM
KP-N-YS
  IC50: > 10 nM
GI-1
  IC50: 0.528 nM
SW626
  IC50: 6.24 nM
NCI-H1770
  IC50: 3.42 nM
HCC1937
  IC50: > 10 nM
LU-139
  IC50: > 10 nM
NCI-H446
  IC50: 2.43 nM
HC-1
  IC50: 6.56 nM
OCUB-M
  IC50: 4.38 nM
